Data from US10975068B2, “6-aminopyridin-3-yl thiazoles as modulators of RORγT” (Janssen Pharmaceutica NV, priority 2016, dated 2021).
Where two headings read alike, the source gives them in different places.

Assays:
full-length human RORγt = full-length human RORγt (Homo sapiens (Human), UniProt P51449); assay: RORγt (full-length human) reporter assay, Conditions B or C; type: cell-based; settings: for inhibition at 3 µM: at 3 μM compound concentration; for RORγt (FL) Reporter Assay B or C, % inhibition (value marked *): marked *: footnote not given
full-length human RORγt, sequence (P51449 other isoform, or with tags, fused parts or gaps): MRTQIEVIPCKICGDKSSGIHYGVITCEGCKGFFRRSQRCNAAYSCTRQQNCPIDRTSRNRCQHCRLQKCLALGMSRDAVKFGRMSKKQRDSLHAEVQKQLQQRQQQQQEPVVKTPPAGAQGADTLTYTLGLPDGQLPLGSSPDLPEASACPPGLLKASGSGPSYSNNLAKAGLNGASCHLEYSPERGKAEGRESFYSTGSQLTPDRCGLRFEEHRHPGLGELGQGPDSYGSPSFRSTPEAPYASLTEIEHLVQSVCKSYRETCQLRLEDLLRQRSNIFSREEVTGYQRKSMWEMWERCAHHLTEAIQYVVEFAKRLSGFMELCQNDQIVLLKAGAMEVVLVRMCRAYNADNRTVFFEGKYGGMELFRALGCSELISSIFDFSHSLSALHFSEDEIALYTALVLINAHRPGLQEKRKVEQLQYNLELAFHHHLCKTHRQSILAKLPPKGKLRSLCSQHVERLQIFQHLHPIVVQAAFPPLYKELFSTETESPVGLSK
Procedure, shortened: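 HEK293T cells transiently co-transfected with GAL4-DBD–full-length human RORγt (nt 142-1635, NM_001001523.1) plus GAL4-firefly and CMV-Renilla luciferase reporters; compounds added 4-6 h post-transfection for 16-20 h in 1.3% FBS, 0.1% DMSO. Firefly signal normalized to DMSO and saturating reference compound, then to Renilla; IC50 from concentration plots.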

[1] = molecular target: human RORγt ligand binding domain (RORγt LBD) (Homo sapiens (Human), UniProt P51449); assay: RORγt ThermoFluor® assay (thermal shift binding); settings: read-out: ThermoFluor® Assay, Kd
human RORγt ligand binding domain (RORγt LBD), sequence (P51449 other isoform, or with tags, fused parts or gaps): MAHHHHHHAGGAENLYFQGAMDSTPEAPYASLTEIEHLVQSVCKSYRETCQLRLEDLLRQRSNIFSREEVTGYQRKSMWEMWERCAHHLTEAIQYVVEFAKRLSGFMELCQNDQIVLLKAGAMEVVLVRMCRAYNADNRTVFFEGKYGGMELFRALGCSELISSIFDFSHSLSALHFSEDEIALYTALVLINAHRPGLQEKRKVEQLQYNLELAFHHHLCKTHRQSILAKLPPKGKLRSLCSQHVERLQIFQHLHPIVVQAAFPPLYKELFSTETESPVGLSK
Procedure, shortened: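 His-tagged human RORγt LBD (0.065 mg/mL) with 60 μM 1,8-ANS in 100 mM Hepes pH 7.0, 10 mM NaCl, 2.5 mM GSH, 0.002% Tween-20 was heated at 1 °C/min.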

[2] = read-out: RORγt (FL) Reporter Assay B or C, % inhibition
[3] = Conditions B or C, read-out: RORγt (FL) Reporter Assay B or C, IC50
[4] = read-out: RORγt (FL) Reporter Assay B or C, IC50

Compound	IC50 (full-length human RORγt; RORγt (FL) Reporter Assay B or C, IC50) [nM]	inhibition at 3 µM (full-length human RORγt; [2]) [%]	Kd [1] [nM]	RORγt (FL) Reporter Assay B or C, % inhibition (value marked *) (full-length human RORγt; Conditions B or C)	IC50 (full-length human RORγt; [3]) [nM]	IC50 (full-length human RORγt; [4]) [nM]	inhibition at 1 µM (full-length human RORγt; at 1 μM compound concentration, read-out: RORγt (FL) Reporter Assay B or C, % inhibition) [%]	inhibition at 0.33 µM (full-length human RORγt; at 0.33 μM compound concentration, read-out: RORγt (FL) Reporter Assay B or C, % inhibition) [%]
C[C@H](Nc1cc(C(F)F)c(-c2sc(C(=O)N[C@H]3CCC[C@@H]3O)nc2C(=O)N2C3CCC2CC3)cn1)C(F)(F)F [Example 293, 4-((1s,4s)-7-Azabicyclo[2.2.1]heptane-7-carbonyl)-5-(4-(difluoromethyl)-6-(((S)-1,1,1-trifluoropropan-2-yl)amino)pyridin-3-yl)-N-((1S,2S)-2-hydroxycyclopentyl)thiazole-2-carboxamide]	13	94	2	–	–	–	–	–
CC[C@H](Nc1cc(C(F)F)c(-c2sc(C(=O)N[C@H]3C[C@H](O)C3)nc2C(=O)N2CCC[C@@H]2C)cn1)C(F)(F)F [Example 233, 5-[4-(Difluoromethyl)-6-[[(1S)-1-(trifluoromethyl)propyl]amino]-3-pyridyl]-N-((1r,3S)-3-hydroxycyclobutyl)-4-[(2S)-2-methylpyrrolidine-1-carbonyl]thiazole-2-carboxamide]	–	–	10	124* %	22	–	–	–
CC[C@H](Nc1cc(C(F)F)c(-c2sc(C(=O)N[C@H](C)CO)nc2C(=O)N2CC(F)(F)C[C@@H]2C)cn1)C(F)(F)F [Example 423, 4-[(2S)-4,4-Difluoro-2-methyl-pyrrolidine-1-carbonyl]-5-[4-(difluoromethyl)-6-[[(1S)-1-(trifluoromethyl)propyl]amino]-3-pyridyl]-N-[(1R)-2-hydroxy-1-methyl-ethyl]thiazole-2-carboxamide]	–	103	1.1	–	–	38	–	–
C[C@H]1CCCN1C(=O)c1nc(C(=O)N2CCC(C)(O)C2)sc1-c1cnc(NC(C)(C)C)cc1C(F)(F)F (stereo partly drawn) [Example 364, (5-(6-(tert-Butylamino)-4-(trifluoromethyl)pyridin-3-yl)-2-(3-hydroxy-3-methylpyrrolidine-1-carbonyl)thiazol-4-yl)((S)-2-methylpyrrolidin-1-yl)methanone]	–	111	7.9	–	–	39	–	–
C[C@H]1CCCN1C(=O)c1nc(C(=O)N2CC[C@](C)(O)C2)sc1-c1cnc(NC(C)(C)C)cc1C(F)(F)F (relative stereo) [Example 365, (5-(6-(tert-Butylamino)-4-(trifluoromethyl)pyridin-3-yl)-2-((S*)-3-hydroxy-3-methylpyrrolidine-1-carbonyl)thiazol-4-yl)((S)-2-methylpyrrolidin-1-yl)methanone]	–	–	8.1	–	–	52	92	–
C[C@H]1CCCN1C(=O)c1nc(C(=O)NCC(C)(C)O)sc1-c1cnc(NCC(C)(C)C)cc1C(F)F [Example 113, (S)-5-(4-(Difluoromethyl)-6-(neopentylamino)pyridin-3-yl)-N-(2-hydroxy-2-methylpropyl)-4-(2-methylpyrrolidine-1-carbonyl)thiazole-2-carboxamide]	–	–	6	110* %	63	–	–	–
C[C@H]1CCCN1C(=O)c1nc(C(=O)N[C@@H]2CC[C@@H](O)C2)sc1-c1cnc(NC(C)(C)C)cc1C(F)F [Example 432, 5-[6-(tert-Butylamino)-4-(difluoromethyl)-3-pyridyl]-N-[(1R,3R)-3-hydroxycyclopentyl]-4-[(2S)-2-methylpyrrolidine-1-carbonyl]thiazole-2-carboxamide]	–	–	1.3	–	–	11	–	122
C[C@H]1CCCN1C(=O)c1nc(C(=O)NCC(C)(C)O)sc1-c1cnc(NC(C)(C)CC(F)(F)F)cc1C(F)F [Example 296]	–	108	0.5	–	–	7.1	–	–
CC(C)(O)CNC(=O)c1nc(C(=O)N2C3CCC2CC3)c(-c2cnc(NC3CCCC3)cc2C(F)(F)F)s1 [Example 53, 4-((1s,4s)-7-Azabicyclo[2.2.1]heptane-7-carbonyl)-5-(6-(cyclopentylamino)-4-(trifluoromethyl)pyridin-3-yl)-N-(2-hydroxy-2-methylpropyl)thiazole-2-carboxamide]	–	–	5.8	109* %	23	–	–	–
